The structures appear in SMILES notation. In brackets after ≈: the same amount, converted by molar mass. Read-outs that look alike come from different tables or passages of the source.

The values that follow come from paper PMC4906375, “Contribution of Amphipathicity and Hydrophobicity to the Antimicrobial Activity and Cytotoxicity of β-Hairpin Peptides” (ACS Infectious Diseases, 2016).

For one series, the system named is K. pneumoniae ATCC 13883. In kind it is cell-based, Klebsiella pneumoniae. To be noted: ATCC 13883. As for the experimental part:
(§1) Both antibacterial and antifungal MIC assays were performed by a broth microdilution plate based method as per CLSI guidelines for antimicrobial susceptibility testing.[53],[54] […] Full assay details are included in the Supporting Information with a full list of strains tested in Table S1.
(§2) Antibacterial assay (Minimum Inhibitory Concentration [MIC]).
(§3) MIC assay was performed by a broth microdilution plate based method as per CLSI guidelines for antimicrobial susceptibility testing of aerobic bacteria.1 Compounds were prepared at 1.28 mg/mL solution in water. The tested strains, Table S1, were cultured in Luria broth (LB) (In Vitro Technologies, USB75852), at 37 °C overnight. A sample of culture was then diluted 40Pfold in fresh Muller Hinton broth (MHB) (Bacto laboratories, 211443) and incubated at 37 °C for 1.5P2 h. The compounds were serially diluted twoPfold across the wells, with compound concentrations ranging from 0.015 µg/mL to 512 µg/mL, plated in duplicate. The resultant midPlog phase cultures were diluted to the final concentration of 1×10^6 CFU/mL, then 50 µL was added to each well of the compoundP containing 96Pwell plates (Corning 3641, NonPbinding Surface [NBS]), giving a final compound concentration range of 0.008 µg/mL to 256 µg/mL and 5x10^5 CFU/mL. All the plates were covered and incubated at 37 °C for 18 h. MICs were determined visually, being defined as the lowest concentration showing no visible growth. Resazurin was added at 0.001% final concentration to each well and incubated for 2 h before MICs were rePread for confirmation using the colour change from blue to pink to indicate wells containing viable cells. The resazurin assay was added in some wells where some form of precipitate was present in otherwise clear wells, making it difficult to ascertain which wells had visible […]
(§4) Antifungal assay (Minimum Inhibitory Concentration [MIC]). MIC assay was performed by a broth microdilution plate based method as per CLSI guidelines for antimicrobial susceptibility testing.2 Fungi strains, Table S1, were cultured for 3 days on Yeast ExtractPPeptone Dextrose (YPD) (SigmaPAldrich, Y1500) agar at 30 °C. A yeast suspension of 1x10^6 to 5x10^6 CFU/mL was prepared from five colonies. These stock suspensions were diluted with Yeast Nitrogen Base (YNB) (Becton Dickinson, 233520) broth to a final concentration of 2.5 ×10^3 CFU/mL. All samples, compounds and standards were plated in 96Pwell plates (Corning 3641, NonPbinding Surface [NBS]), by adding 10 µL of 1.28 mg/mL stock solution to each well and 90 µL of media. Then, the samples were serial diluted (1:2) in 12 concentrations across the plate. The standard antifungal ranged from 256

Series [1] has as its system E. coli ATCC 25922 cytoplasmic membrane. To be noted: not told.
In series [2] the test system is E. coli ATCC 700926 (K12). It is filed as cell-based, Escherichia coli. As to conditions: ATCC 700926. As for the experimental part:
as §1, §2, §3, §4

The test system of series [3] is E. coli ATCC 25922 (control strain). It is filed as cell-based, Escherichia coli. To be noted: ATCC 25922. As for the experimental part: as §1, §2, §3, §4
For series [4] the following is noted: hemolysis (%) at 300 μg/mL, human erythrocytes, 3 h, relative to 100% hemolysis by 1% Triton X-100.
The nature of series [5]: Plasma protein binding, ultrafiltration. In kind it is in vitro ADME. As to conditions: 100% human plasma, read-out: PPB (%) (converted). As to the method: Plasma protein binding was performed using an ultrafiltration method.[58]
Plasma protein binding assay
Plasma protein binding was performed using an Ultrafiltration method.13 Fresh frozen human plasma was pooled from O Negative (Product number 1274512) blood from the R & D division of the Australian Red Cross Blood Services (Brisbane). Stock solutions (20 mg/mL) of the test compounds were prepared in H2O. Test compounds (40 µg/mL) were incubated in 100 % human plasma at 37 °C for 30 min (1 mL volume). For unfiltered samples, an aliquot (50 µL) was removed, diluted with PBS (50 µL) and quenched with icePcold precipitating solution comprising 0.5 µM carbutamide MS internal standard in acetonitrile : methanol : formic acid (1: 1 : 0.001). Samples were incubated at 4 °C for 30 min then centrifuged at 14000 × g for 8 min, with the clear supernatant transferred to a vial for LC/MS/MS analysis.
For filtered samples, the plasma sample (250 µL) was filtered using Amicon UltraP0.5 Centrifugal Filter Devices 30K NMWL at 14000 × g for 7 min and then an aliquot (50 µL) was processed as described for unfiltered samples. The fraction of unbound compound was calculated by determining the concentration of the filtered sample and the concentration of unfiltered sample. All samples were performed in triplicate with sulfamethoxazole as a […]

The subject of a further series is human erythrocytes. To be noted: red cells of human, 3 h.
The test system of series [6] is E. coli ATCC 25922 cytoplasmic membrane. In words: Inner membrane permeability measured by SYTOX green fluorescence emission. To be noted: SYTOX green, E. coli ATCC 25922, 1 h.
The test system of a further series is A. baumannii ATCC 19606. It is filed as cell-based, Acinetobacter baumannii. To be noted: ATCC 19606. As for the experimental part:
as §1, §2, §3, §4

The test system of another series is P. aeruginosa ATCC 27853. It is filed as cell-based, Pseudomonas aeruginosa. To be noted: ATCC 27853. As for the experimental part: as §1, §2, §3, §4
Another series has as its system B. subtilis ATCC 6051. In words: microbe, parasite or virus in culture. As to conditions: ATCC 6051. It is filed as cell-based, Bacillus subtilis. As to the method:
as §1, §2, §3, §4

A short description of series [7]: Cytotoxicity, Alamar Blue (resazurin) assay. In kind it is cell-based, human. To be noted: human. As to the method: Cytotoxicity to HEK293 and HepG2 cells was determined using the Alamar Blue (resazurin) assay,[55],[56] with 24 h of incubation and either 1 or 10% serum concentration. Full assay details are included in the Supporting Information.
Cytotoxicity. Cytotoxicity to HEK293 and HepG2 cells was determined using the Alamar Blue (resazurin) assay,3, 4 For the assays supplemented with 1 % FBS as final concentration the cells were seeded one day prior to the assay (3,000 per 20 µL for HEK293 and 4,000 per 20 µL for HepG2) with DMEM + 2 % FBS. The compounds were prepared as described below, using DMEM with no FBS instead to give the final FBS concentration of 1 %.
The highest concentration the compounds were tested was 300 µg/mL. A dilution series of 1:3 fold steps in DMEM (GIBCOPInvitrogen, cat. no. 11995P073) + 10 % FBS was created (concentration range of 600 µg/mL – 0.28 µg/mL), and 20 µL of these 2x concentrated compound dilutions were added in duplicates to wells of a black wall, clear bottom 384Pwells cell culture plate. For the assays with 1 % FBS the compounds in 0 % FBS were added to the existing cell plates in 2 % FBS. 200 µM Tamoxifen (Sigma T5648) served as negative control and in addition a serial dilution of tamoxifen, starting at 200 µM (74 µg/mL), was included as a dose response control (1 in 2 dilution series for tamoxifen). For the assay with 10 % FBS, HepG2 cells were seeded at 5000 cells per well, in a volume of 20 µL in DMEM medium + 10 % of FBS and added to the 20 µL of compound solution (total volume of 40 µL), resulting in a final compound concentration range of 300 µg/mL to 0.14 µg/mL.
Cells were incubated together with the compounds for 20 h at 37 °C, 5 % CO2.
After the incubation, 5 µL of 100 µM (25 µg/mL) resazurin dissolved in PBS (final concentration was approximately 11 µM) was added to each well. The plates were then incubated for 3 h at 37 °C, 5 % CO2. The fluorescence intensity was read using the TECAN Infinite M1000 PRO with excitation/emission 560/590. The data was analysed by Graph Pad Prism software. Results are presented as the average percentage of control ± SD for each set of duplicate wells using the following equation: Cell survival % = (FISAMPLE – FINegative/FIUNTREATED –FINegative)*100. (100 µg/mL tamoxifen was set as 0 % survival, media
(The colour change of resazurin is a common sign of viable cells or microbes.)

As to `CC(C)C[C@H](NC(=O)[C@H](CCCNC(=N)N)NC(=O)CNC(=O)CNC(=O)[C@@H](N)CCCNC(=N)N)C(=O)N[C@H]1CSSC[C@@H](C(=O)N[C@H](C(=O)NCC(=O)N[C@@H](CCCNC(=N)N)C(N)=O)C(C)C)NC(=O)[C@H](C(C)C)NC(=O)[C@@H]2CSSC[C@H](NC(=O)[C@H](Cc3ccc(O)cc3)NC1=O)C(=O)N[C@@H](CCCNC(=N)N)C(=O)N[C@@H](CCCNC(=N)N)C(=O)N[C@@H](CCCNC(=N)N)C(=O)N[C@@H](Cc1ccccc1)C(=O)N2` [protegrin-1], the MIC against K. pneumoniae ATCC 13883 is 0.5 µg/mL (≈ 0.232 µM); in series [2] it was 0.25 µg/mL (≈ 0.116 µM); in [3] it was 2 µg/mL (≈ 0.928 µM); against A. baumannii ATCC 19606 it was 0.25 µg/mL (≈ 0.116 µM); with P. aeruginosa ATCC 27853, 4 µg/mL (≈ 1.86 µM); against B. subtilis ATCC 6051 it was 0.03 µg/mL (≈ 0.0139 µM). Also, the “permeabilization concentration relative to MIC” value in series [1] is “lower concentration than their MIC”. In [4], the hemolysis was found to be 65%. Further, the fraction unbound in series [5] is 0.11. In addition, in the series with human erythrocytes, the “hemolysis (%) at 300 μg/mL” value is recorded as 64.8 ± 3.5%. Further, the “permeabilisation of the E. coli cytoplasmic membrane at lethal concentrations” value in series [6] was “permeabilise”. Moreover, the CC50 at 24 h in series [7] (HEK293 cells, HEK293, 1% FBS, read-out: cytotoxicity HEK293 1% FBS) was 19.6 ± 1.2 µg/mL (≈ 9.09 µM); in series [7] (HEK293 cells, HEK293, 10% FBS, read-out: cytotoxicity HEK293 10% FBS), 93.9 ± 1.1 µg/mL (≈ 43.6 µM); in series [7] (HepG2 cells, HepG2, 1% FBS, read-out: cytotoxicity HepG2 1% FBS), 31.4 ± 2 µg/mL (≈ 14.6 µM); in series [7] (HepG2 cells, HepG2, 10% FBS, read-out: cytotoxicity HepG2 10% FBS), 96.1 ± 1.1 µg/mL (≈ 44.6 µM).
